In the supplement of paper PMC11628255, “Interference of metal ions on the bioluminescent signal of firefly, Renilla, and NanoLuc luciferases in high-throughput screening assays” (Frontiers in Chemistry, 2024):
± gives the standard deviation of the averaged measurements.

What was measured:
Assay in all cases: normalised percent inhibition of luminescence (vs positive and negative controls); higher = stronger inhibition
[1] = test system: Renilla luciferase (RLuc)
Protocol: (§1)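 Concentration-response (>=11 concentrations) of metal salts on purified FLuc, NLuc or RLuc luminescence in screening (SC) or 100 mM HEPES (H) buffer; salt pre-incubated with enzyme 10 min at RT, read 10 min after substrate. Normalised percent inhibition vs plate positive (PTC-124, isradipine, BTS) and DMSO negative controls; triplicate wells.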

[2] = test system: NanoLuc luciferase (NLuc)
Protocol: as §1

[3] = test system: firefly luciferase (FLuc)
Protocol: as §1

[4] = metal salt concentration 0.0001 mM, 100 mM HEPES buffer
[5] = metal salt concentration 0.00025 mM, 100 mM HEPES buffer
[6] = metal salt concentration 0.0005 mM, 100 mM HEPES buffer
[7] = metal salt concentration 0.001 mM, 100 mM HEPES buffer
[8] = metal salt concentration 0.002 mM, screening conditions buffer
[9] = metal salt concentration 0.005 mM, screening conditions buffer
[10] = metal salt concentration 0.01 mM, screening conditions buffer
[11] = metal salt concentration 0.02 mM, screening conditions buffer
[12] = metal salt concentration 0.025 mM, 100 mM HEPES buffer
[13] = metal salt concentration 0.05 mM, 100 mM HEPES buffer
[14] = metal salt concentration 0.05 mM, screening conditions buffer
[15] = metal salt concentration 0.1 mM, 100 mM HEPES buffer
[16] = metal salt concentration 0.1 mM, screening conditions buffer
[17] = metal salt concentration 0.2 mM, screening conditions buffer
[18] = metal salt concentration 0.5 mM, 100 mM HEPES buffer
[19] = metal salt concentration 0.5 mM, screening conditions buffer
[20] = metal salt concentration 1 mM, 100 mM HEPES buffer
[21] = metal salt concentration 1 mM, screening conditions buffer
[22] = metal salt concentration 2.5 mM, 100 mM HEPES buffer
[23] = metal salt concentration 2.5 mM, screening conditions buffer
[24] = metal salt concentration 5 mM, 100 mM HEPES buffer
[25] = metal salt concentration 5 mM, screening conditions buffer

Q: Which normalised percent inhibition [1, 4] does the source give for `[Cl][Sn][Cl]` [tin(II) chloride] here?
A: -43.6 ± 17%

Q: What about the normalised percent inhibition [1, 5] of the same compound?
A: -34 ± 13%

Q: And the normalised percent inhibition [1, 6]?
A: -29.8 ± 5.5%

Q: What about the normalised percent inhibition [1, 7] of the same compound?
A: -28.6 ± 18%

Q: And the normalised percent inhibition [1, 8]?
A: 2.49 ± 5.6%

Q: And the normalised percent inhibition [1, 9]?
A: -3.55 ± 14%

Q: What about the normalised percent inhibition [1, 10] of the same compound?
A: 13.4 ± 4.1%

Q: What about the normalised percent inhibition [1, 11] of the same compound?
A: -6.49 ± 5.1%

Q: And the normalised percent inhibition [1, 12]?
A: -15.8 ± 19%

Q: And the normalised percent inhibition [1, 13]?
A: -15 ± 8.5%

Q: What about the normalised percent inhibition [1, 14] of the same compound?
A: -5.21 ± 12%

Q: And the normalised percent inhibition [1, 15]?
A: -35 ± 10%

Q: What about the normalised percent inhibition [1, 16] of the same compound?
A: -1.32 ± 8.7%

Q: What about the normalised percent inhibition [1, 17] of the same compound?
A: -3.23 ± 5%

Q: What about the normalised percent inhibition [1, 18] of the same compound?
A: -38.9 ± 24%

Q: What about the normalised percent inhibition [1, 19] of the same compound?
A: -6.09 ± 2.5%

Q: And the normalised percent inhibition [1, 20]?
A: -53 ± 25%

Q: What about the normalised percent inhibition [1, 21] of the same compound?
A: -5.29 ± 9%

Q: And the normalised percent inhibition [1, 22]?
A: -45.3 ± 22%

Q: And the normalised percent inhibition [1, 23]?
A: -6.8 ± 10%

Q: What about the normalised percent inhibition [1, 24] of the same compound?
A: 79.9 ± 17%

Q: What about the normalised percent inhibition [1, 25] of the same compound?
A: 103 ± 2.7%

Q: And the normalised percent inhibition [2, 4]?
A: -1.04 ± 6.1%

Q: What about the normalised percent inhibition [2, 5] of the same compound?
A: -2.95 ± 2.7%

Q: And the normalised percent inhibition [2, 6]?
A: -1.03 ± 1.3%

Q: And the normalised percent inhibition [2, 7]?
A: -2.16 ± 1.9%

Q: What about the normalised percent inhibition [2, 8] of the same compound?
A: 1.6 ± 4.3%

Q: What about the normalised percent inhibition [2, 9] of the same compound?
A: 4.64 ± 7.8%

Q: What about the normalised percent inhibition [2, 10] of the same compound?
A: 3.42 ± 6.3%

Q: What about the normalised percent inhibition [2, 11] of the same compound?
A: -0.105 ± 7.6%

Q: And the normalised percent inhibition [2, 12]?
A: -3.24 ± 3.1%

Q: What about the normalised percent inhibition [2, 13] of the same compound?
A: 6.37 ± 5.1%

Q: What about the normalised percent inhibition [2, 14] of the same compound?
A: -1.81 ± 0.79%

Q: What about the normalised percent inhibition [2, 15] of the same compound?
A: -5.15 ± 2.1%

Q: What about the normalised percent inhibition [2, 16] of the same compound?
A: 1.62 ± 2.5%

Q: What about the normalised percent inhibition [2, 17] of the same compound?
A: 6.52 ± 2.1%

Q: And the normalised percent inhibition [2, 18]?
A: -1.5 ± 2.9%

Q: What about the normalised percent inhibition [2, 19] of the same compound?
A: 8.42 ± 5.9%

Q: What about the normalised percent inhibition [2, 20] of the same compound?
A: -2.37 ± 3.8%

Q: And the normalised percent inhibition [2, 21]?
A: 20.2 ± 2.5%

Q: And the normalised percent inhibition [2, 22]?
A: -3.02 ± 4.8%

Q: What about the normalised percent inhibition [2, 23] of the same compound?
A: 93.83 ± 0.43%

Q: What about the normalised percent inhibition [2, 24] of the same compound?
A: 11.3 ± 8.9%

Q: What about the normalised percent inhibition [2, 25] of the same compound?
A: 137.11 ± 0.064%

Q: And the normalised percent inhibition [3, 4]?
A: -37.6 ± 15%

Q: And the normalised percent inhibition [3, 5]?
A: -36.8 ± 6.8%

Q: What about the normalised percent inhibition [3, 6] of the same compound?
A: -25.8 ± 14%

Q: What about the normalised percent inhibition [3, 7] of the same compound?
A: -45.1 ± 15%

Q: What about the normalised percent inhibition [3, 8] of the same compound?
A: -6.84 ± 5.6%

Q: What about the normalised percent inhibition [3, 9] of the same compound?
A: -10.8 ± 7.7%

Q: What about the normalised percent inhibition [3, 10] of the same compound?
A: 6.44 ± 2.8%

Q: And the normalised percent inhibition [3, 11]?
A: 1.32 ± 6%

Q: And the normalised percent inhibition [3, 12]?
A: -26.1 ± 9.4%

Q: What about the normalised percent inhibition [3, 13] of the same compound?
A: -13.9 ± 8.4%

Q: What about the normalised percent inhibition [3, 14] of the same compound?
A: 19.1 ± 12%

Q: And the normalised percent inhibition [3, 15]?
A: -9.51 ± 17%

Q: And the normalised percent inhibition [3, 16]?
A: 56.5 ± 6.6%

Q: And the normalised percent inhibition [3, 17]?
A: 99.33 ± 0.51%

Q: And the normalised percent inhibition [3, 18]?
A: 11.7 ± 4.4%

Q: And the normalised percent inhibition [3, 19]?
A: 100.6 ± 0.52%

Q: And the normalised percent inhibition [3, 20]?
A: 37.6 ± 7.7%

Q: And the normalised percent inhibition [3, 21]?
A: 100.2 ± 0.65%

Q: What about the normalised percent inhibition [3, 22] of the same compound?
A: 63.9 ± 6.3%

Q: What about the normalised percent inhibition [3, 23] of the same compound?
A: 100.4 ± 0.65%

Q: And the normalised percent inhibition [3, 24]?
A: 100.7 ± 0.19%

Q: And the normalised percent inhibition [3, 25]?
A: 100.5 ± 0.69%
